{
  "source": "paper PMC10167348",
  "about": "“Structural mechanisms of TRPM7 activation and inhibition” (Nature Communications, 2023)",
  "format_in_all_cases": "cell-based",
  "key": {"[1]": {"biological_target": "T1, TRPM7-L671A/N752K (Mus musculus, UniProt Q923J1, L671A/N752K)", "T1 construct": "expressed in transfected cells; host or cells: HEK 293T", "T1 sequence (Q923J1 whole entry L671A/N752K)": "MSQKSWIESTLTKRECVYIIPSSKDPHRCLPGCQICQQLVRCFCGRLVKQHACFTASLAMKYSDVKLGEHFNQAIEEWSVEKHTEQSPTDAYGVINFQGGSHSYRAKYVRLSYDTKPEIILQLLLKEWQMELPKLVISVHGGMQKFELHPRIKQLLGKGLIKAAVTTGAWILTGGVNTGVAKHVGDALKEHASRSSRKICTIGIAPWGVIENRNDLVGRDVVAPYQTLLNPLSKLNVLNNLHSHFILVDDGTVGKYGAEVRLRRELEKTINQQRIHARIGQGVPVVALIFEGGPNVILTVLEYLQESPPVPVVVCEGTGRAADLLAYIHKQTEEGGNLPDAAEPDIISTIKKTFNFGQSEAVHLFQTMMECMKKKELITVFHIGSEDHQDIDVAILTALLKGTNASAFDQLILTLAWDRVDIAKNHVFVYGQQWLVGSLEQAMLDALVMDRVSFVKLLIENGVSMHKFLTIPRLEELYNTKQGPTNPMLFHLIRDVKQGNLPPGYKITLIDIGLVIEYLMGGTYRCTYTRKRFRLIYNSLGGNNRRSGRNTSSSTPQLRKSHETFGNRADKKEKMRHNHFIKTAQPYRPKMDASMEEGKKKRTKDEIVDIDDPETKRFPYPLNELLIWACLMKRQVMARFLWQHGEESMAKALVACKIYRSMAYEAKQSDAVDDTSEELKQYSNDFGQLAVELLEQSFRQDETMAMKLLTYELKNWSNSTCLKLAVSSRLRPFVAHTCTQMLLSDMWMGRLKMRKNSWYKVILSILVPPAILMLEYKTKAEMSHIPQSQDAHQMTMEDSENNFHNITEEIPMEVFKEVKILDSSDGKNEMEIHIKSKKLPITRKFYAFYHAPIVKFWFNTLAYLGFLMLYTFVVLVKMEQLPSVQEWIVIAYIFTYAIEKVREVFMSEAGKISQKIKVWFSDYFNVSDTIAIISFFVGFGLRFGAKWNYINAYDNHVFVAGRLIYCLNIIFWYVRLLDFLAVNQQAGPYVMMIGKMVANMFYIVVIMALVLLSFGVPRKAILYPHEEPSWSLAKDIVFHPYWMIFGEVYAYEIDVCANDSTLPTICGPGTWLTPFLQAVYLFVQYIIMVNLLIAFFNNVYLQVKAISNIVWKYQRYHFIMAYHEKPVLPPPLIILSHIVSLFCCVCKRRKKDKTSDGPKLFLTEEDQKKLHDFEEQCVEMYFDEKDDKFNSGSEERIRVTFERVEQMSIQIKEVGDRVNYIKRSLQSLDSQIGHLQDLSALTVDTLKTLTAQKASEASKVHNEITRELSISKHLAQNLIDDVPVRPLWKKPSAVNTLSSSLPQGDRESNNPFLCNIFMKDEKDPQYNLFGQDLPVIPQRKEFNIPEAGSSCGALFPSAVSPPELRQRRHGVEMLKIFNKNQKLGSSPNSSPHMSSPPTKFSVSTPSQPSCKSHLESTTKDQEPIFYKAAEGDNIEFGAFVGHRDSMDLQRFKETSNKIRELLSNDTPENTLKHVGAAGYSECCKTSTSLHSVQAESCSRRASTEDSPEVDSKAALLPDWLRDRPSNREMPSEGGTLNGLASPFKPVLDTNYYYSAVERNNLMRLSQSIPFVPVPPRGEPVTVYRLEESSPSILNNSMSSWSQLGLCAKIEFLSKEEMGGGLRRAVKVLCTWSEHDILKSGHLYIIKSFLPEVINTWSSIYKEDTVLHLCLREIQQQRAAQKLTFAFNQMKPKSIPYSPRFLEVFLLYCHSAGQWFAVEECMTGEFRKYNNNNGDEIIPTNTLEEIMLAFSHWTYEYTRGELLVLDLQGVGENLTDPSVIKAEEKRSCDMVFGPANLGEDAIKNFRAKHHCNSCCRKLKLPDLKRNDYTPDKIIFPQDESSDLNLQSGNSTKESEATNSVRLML", "assay": "Aequorin-based Ca2+ influx assay, activation by naltriben", "protocol": "(§1) Measurements of [Ca^2+]i were performed as reported previously with several modifications[2],[52],[54]. HEK 293T cells (mycoplasma test negative, ATCC #CRL3216) were maintained at 37 °C and 5% CO2 in DMEM supplemented with 10% fetal calf serum, 100 µg/ml streptomycin and 100 U/ml penicillin (all from Thermo Fisher Scientific). Cells cultured in six-well plates (~60% confluence) were transfected with 2 µg/dish Trpm7 plasmid DNA and 0.1 µg/dish pG5A plasmid DNA encoding eGFP fused to Aequorea victoria aequorin, using Lipofectamine 2000 (Thermo Fisher Scientific). Twenty-four hours after transfection, the cells were washed with Mg^2+-free HEPES-buffered saline (Mg^2+-free HBS) containing 140 mM NaCl, 6 mM KCl, 0.5 mM CaCl2, 10 mM HEPES (pH 7.4) and 5 mM glucose, and mechanically resuspended in the Mg^2+-free HBS. For reconstitution of aequorin, cell suspensions were incubated with 5 µM coelenterazine (Biaffin GmbH) in the Mg^2+-free HBS for 30 min at room temperature. Cells were washed twice by centrifugation at 600 rpm for 5 min (Heraeus Pico 17 microcentrifuge, Thermo Fisher Scientific), resuspended in the Mg^2+-free HBS and aliquoted into 96-well plates (1 × 10^5 cells per well). Luminescence was detected at room temperature using a FLUOstar OPTIMA microplate reader (BMG LABTECH GmbH). To monitor the NS8593- and VER155008-induced inhibition of TRPM7-mediated Ca^2+ influx, the extracellular concentration of Ca^2+ was increased to 5 mM by injecting the CaCl2-containing Mg^2+-free HBS in the absence or presence of the inhibitors. […] To study activation by naltriben, TRPM7-transfected cells were exposed to Mg^2+-free HBS containing different concentrations of the agonist. The experiments were terminated by lysing cells with 0.1% (v/v) Triton X-100 in the Mg^2+-free HBS to record the total bioluminescence. The bioluminescence rates (counts/s) were analyzed at 1-s intervals and calibrated as [Ca^2+]i values using the following equation:1 p[Ca^2+]i=0.332588(−log(k))+5.5593 where k represents the rate of aequorin consumption, i.e., counts/s divided by the total number of counts.\n(§2) To determine the IC50 values for NS8593 and VER155008 (EC50 for naltriben), the data were fitted with the following logistic equation:2 Ec=Emin+Emax+Emin/1+c^h/IC50^h where E(c) is the functional effect at the concentration c of the compound, Emin is the minimal effect, Emax is the maximal effect, IC50 (EC50) is the concentration of the compound that produces the half-maximal effect, and h is the Hill coefficient. Fitting of dose-response curves was performed using GraphPad Prism 8.4.0. Data are presented as the mean ± SEM."}, "[2]": {"biological_target": "T2, TRPM7-D670A (Mus musculus, UniProt Q923J1, D670A)", "T2 construct": "expressed in transfected cells; host or cells: HEK 293T", "T2 sequence (Q923J1 whole entry D670A)": "as the sequence (Q923J1 whole entry L671A/N752K) above, with D670A, A671L, K752N counted along it", "assay": "Aequorin-based Ca2+ influx assay, activation by naltriben", "settings": "for TRPM7 activation, fold: replicate values", "protocol": "as §1, §2"}, "[3]": {"biological_target": "T3, TRPM7-N752K (Mus musculus, UniProt Q923J1, N752K)", "T3 construct": "expressed in transfected cells; host or cells: HEK 293T", "T3 sequence (Q923J1 whole entry N752K)": "as the sequence (Q923J1 whole entry L671A/N752K) above, with A671L counted along it", "assay": "Aequorin-based Ca2+ influx assay, activation by naltriben", "protocol": "as §1, §2"}, "[4]": {"biological_target": "T4, TRPM7-M741A (Mus musculus, UniProt Q923J1, M741A)", "T4 construct": "expressed in transfected cells; host or cells: HEK 293T", "T4 sequence (Q923J1 whole entry M741A)": "as the sequence (Q923J1 whole entry L671A/N752K) above, with A671L, M741A, K752N counted along it", "assay": "Aequorin-based Ca2+ influx assay, activation by naltriben", "settings": "for TRPM7 activation, fold: replicate values", "protocol": "as §1, §2"}, "[5]": {"biological_target": "T3, TRPM7-N752K", "assay": "Whole-cell patch-clamp recordings in HEK 293T cells", "settings": "50 and 100 μM NTB", "protocol": "(§3) Patch-clamp experiments were performed as reported previously, with a few modifications[69],[70]. HEK 293T cells grown in 35-mm dishes to ~60% confluence were transiently transfected with Trpm7 cDNAs in the pIRES2-EGFP vector (2 µg/dish). Patch-clamp experiments were conducted 18–22 h after transfection with cells displaying EGFP fluorescence. Whole-cell currents were recorded using an EPC10 patch-clamp amplifier and PatchMaster software (Version V2x69, Harvard Bioscience). Voltages were corrected for a liquid junction potential of 10 mV. Currents were elicited by voltage ramps from –100 mV to +100 mV over 50 ms acquired at 0.5 Hz. The inward and outward current amplitudes were measured at –80 mV and +80 mV and were normalized to the cell size as pA/pF. The capacitance was measured using the automated capacitance cancellation function of EPC10. The standard extracellular solution contained 140 mM NaCl, 2.8 mM KCl, 1 mM CaCl2, 2 mM MgCl2, 10 mM HEPES-NaOH, and 11 mM glucose (all from Sigma-Aldrich). Solutions were adjusted to pH 7.2 using an FE20 pH meter (Mettler Toledo) and to 290 mOsm using a Vapro 5520 osmometer (Wescor Inc). […] For the experiment with naltriben, the intracellular solution contained 120 mM Cs-glutamate, 8 mM NaCl, 10 mM Cs-EGTA, 1.5 mM MgCl2, and 10 mM HEPES-CsOH. The intracellular solution was also adjusted to pH 7.2 and 290 mOsm. Data are presented as the mean ± SEM Unless indicated otherwise, data were compared by unpaired t-test (GraphPad Prism 8.4.0). For multiple comparisons, ordinary one-way ANOVA (GraphPad Prism 8.4.0) was used. Significance was accepted at P ≤ 0.05."}, "[6]": {"biological_target": "T5, TRPM7-L671A (Mus musculus, UniProt Q923J1, L671A)", "T5 construct": "expressed in transfected cells; host or cells: HEK 293T", "T5 sequence (Q923J1 whole entry L671A)": "as the sequence (Q923J1 whole entry L671A/N752K) above, with K752N counted along it", "assay": "Whole-cell patch-clamp recordings in HEK 293T cells", "settings": "50 and 100 μM NTB", "protocol": "as §3"}},
  "note": "Values joined by “and” are separate entries in the source; they are usually repeats but may differ in a detail not shown here. Identical values can stand only once.",
  "data": [
    {"smiles": "Oc1ccc2c3c1O[C@H]1c4oc5ccccc5c4C[C@@]4(O)[C@@H](C2)N(CC2CC2)CC[C@]314", "note": "[Naltriben, naltriben]", "values": [
      {"measurement": "EC50", "setting": "[1]", "result": "230 ± 48.9", "unit": "µM"},
      {"measurement": "Hill coefficient", "setting": "[1]; N752K/ L671A, agonist, mean ± SEM", "result": "2.82 ± 1.38"},
      {"measurement": "EC50", "setting": "[2]", "result": "117 ± 32.4", "unit": "µM"},
      {"measurement": "TRPM7 activation, fold", "setting": "[2]; D670A, [Naltriben] 10 µM", "result": "1.01 fold and 1.02 fold and 1.12 fold"},
      {"measurement": "TRPM7 activation, fold", "setting": "[2]; D670A, [Naltriben] 20 µM", "result": "1.24 fold and 1.22 fold and 1.21 fold"},
      {"measurement": "TRPM7 activation, fold", "setting": "[2]; D670A, [Naltriben] 30 µM", "result": "1.55 fold and 1.37 fold (2×)"},
      {"measurement": "TRPM7 activation, fold", "setting": "[2]; D670A, [Naltriben] 40 µM", "result": "1.67 fold and 1.48 fold and 1.56 fold"},
      {"measurement": "TRPM7 activation, fold", "setting": "[2]; D670A, [Naltriben] 50 µM", "result": "2.45 fold and 1.56 fold and 1.72 fold"},
      {"measurement": "TRPM7 activation, fold", "setting": "[2]; D670A, [Naltriben] 100 µM", "result": "2.45 fold and 2.03 fold and 2.05 fold"},
      {"measurement": "TRPM7 activation, fold", "setting": "[2]; D670A, [Naltriben] 200 µM", "result": "3.19 fold and 2.69 fold and 2.68 fold"},
      {"measurement": "TRPM7 activation, fold", "setting": "[2]; D670A, [Naltriben] 300 µM", "result": "3.34 fold and 3.00 fold and 2.98 fold"},
      {"measurement": "TRPM7 activation, fold", "setting": "[2]; D670A, [Naltriben] 400 µM", "result": "3.55 fold and 3.27 fold and 3.16 fold"},
      {"measurement": "TRPM7 activation, fold", "setting": "[2]; D670A, [Naltriben] 500 µM", "result": "3.71 fold and 3.18 fold and 3.31 fold"},
      {"measurement": "Hill coefficient", "setting": "[2]; D670A, agonist, mean ± SEM", "result": "1.17 ± 0.24"},
      {"measurement": "EC50", "setting": "[3]", "result": "191 ± 18", "unit": "µM"},
      {"measurement": "Hill coefficient", "setting": "[3]; N752K, agonist, mean ± SEM", "result": "1.91 ± 0.24"},
      {"measurement": "EC50", "setting": "[4]", "result": "85 ± 6.51", "unit": "µM"},
      {"measurement": "TRPM7 activation, fold", "setting": "[4]; M741A, [Naltriben] 10 µM", "result": "0.99 fold and 1.09 fold and 1.07 fold (2×)"},
      {"measurement": "TRPM7 activation, fold", "setting": "[4]; M741A, [Naltriben] 20 µM", "result": "1.10 fold and 1.30 fold and 1.28 fold and 1.20 fold"},
      {"measurement": "TRPM7 activation, fold", "setting": "[4]; M741A, [Naltriben] 30 µM", "result": "1.39 fold and 1.61 fold and 1.52 fold and 1.40 fold"},
      {"measurement": "TRPM7 activation, fold", "setting": "[4]; M741A, [Naltriben] 40 µM", "result": "1.53 fold and 1.69 fold and 1.74 fold and 1.64 fold"},
      {"measurement": "TRPM7 activation, fold", "setting": "[4]; M741A, [Naltriben] 50 µM", "result": "1.77 fold and 2.03 fold and 1.91 fold and 1.96 fold"},
      {"measurement": "TRPM7 activation, fold", "setting": "[4]; M741A, [Naltriben] 100 µM", "result": "2.28 fold and 2.65 fold and 2.56 fold and 2.47 fold"},
      {"measurement": "TRPM7 activation, fold", "setting": "[4]; M741A, [Naltriben] 200 µM", "result": "2.83 fold and 3.14 fold and 3.02 fold and 2.90 fold"},
      {"measurement": "TRPM7 activation, fold", "setting": "[4]; M741A, [Naltriben] 300 µM", "result": "3.11 fold and 3.30 fold and 3.34 fold and 3.20 fold"},
      {"measurement": "TRPM7 activation, fold", "setting": "[4]; M741A, [Naltriben] 400 µM", "result": "3.18 fold and 3.51 fold and 3.48 fold and 3.46 fold"},
      {"measurement": "TRPM7 activation, fold", "setting": "[4]; M741A, [Naltriben] 500 µM", "result": "3.39 fold and 3.58 fold (2×) and 3.45 fold"},
      {"measurement": "Hill coefficient", "setting": "[4]; M741A, agonist, mean ± SEM", "result": "1.37 ± 0.11"},
      {"measurement": "sensitivity of TRPM7 currents to agonist, mutant vs WT", "setting": "[5]", "result": "reduced sensitivity"},
      {"measurement": "sensitivity of TRPM7 currents to agonist, mutant vs WT", "setting": "[6]", "result": "reduced sensitivity"}
    ]}
  ]
}
